Values of other authors, collected in PMC7340670, “Phase I study of TAS-115, a novel oral multi-kinase inhibitor, in patients with advanced solid tumors” (Investigational New Drugs, 2019).

Experiments:
[1] = test system: patients with solid tumours; parameters: method as in PMID 21606412; conditions: phase I study for solid tumours; cited from earlier work
circulating sMET = test system: circulating sMET; parameters: method as in PMID 21606412, PMID 21156020, PMID 24687921; conditions: previous clinical studies; cited from earlier work

Molecule	TRAE decreased appetite [1] [%]	TRAE diarrhea [1] [%]	TRAE fatigue [1] [%]	TRAE nausea [1] [%]	TRAEs neutropenia, anemia, hypophosphatemia, and thrombocytopenia [1]	levels of circulating sMET (circulating sMET)
COc1cc2nccc(Oc3ccc(NC(=O)C4(C(=O)Nc5ccc(F)cc5)CC4)cc3)c2cc1OC [cabozantinib]	48	57	55	43	not observed	Increased levels
rilotumumab: agent of a previous clinical study in which increased circulating sMET was reported (ref 20)						Increased levels
onartuzumab: agent of a previous clinical study in which increased circulating sMET was reported (ref 21)						Increased levels
